Measurements: patent US10023564B2, “G protein-coupled receptor kinase 2 inhibitors and methods for use of the same” (THE REGENTS OF THE UNIVERSITY OF MICHIGAN, priority 2014, dated 2018)

Key:
ROCK1 = ROCK1 (Homo sapiens (Human), UniProt Q13464); assay: Rho-associated coiled-coil kinase (ROCK) assay, ADP-Glo system; type: biochemical; conditions: 0.1 μg ROCK1, 1 μg S6K substrate, 100 μM ATP, 60 min
Procedure: Rho-associated coiled-coil kinase (ROCK) assays were performed with the ADP-Glo system using 0.1 μg ROCK1 and 1 μg S6K substrate, and 100 μM ATP for 60 min prior to addition of ADP-GLO Reagent, and allowed to incubate for an additional 40 min prior to the addition of the Kinase Detection Reagent and imaging on a PHERASTAR system.

GRK2 = GRK2 (Homo sapiens (Human), UniProt P25098); assay: GRK2 kinetic assay (phosphorylation of bROS or tubulin, phosphorimaging); type: biochemical; conditions: 50 nM GRK, 5 μM ATP, 5 min reaction
Procedure: The low salt concentration and DDM were used to maximize GRK activity and disrupt small molecule aggregates from forming, respectively. […] Data was analyzed and inhibition curves were fit via GraphPad Prism.

Sequence of ROCK1 (Q13464 whole entry, species assumed): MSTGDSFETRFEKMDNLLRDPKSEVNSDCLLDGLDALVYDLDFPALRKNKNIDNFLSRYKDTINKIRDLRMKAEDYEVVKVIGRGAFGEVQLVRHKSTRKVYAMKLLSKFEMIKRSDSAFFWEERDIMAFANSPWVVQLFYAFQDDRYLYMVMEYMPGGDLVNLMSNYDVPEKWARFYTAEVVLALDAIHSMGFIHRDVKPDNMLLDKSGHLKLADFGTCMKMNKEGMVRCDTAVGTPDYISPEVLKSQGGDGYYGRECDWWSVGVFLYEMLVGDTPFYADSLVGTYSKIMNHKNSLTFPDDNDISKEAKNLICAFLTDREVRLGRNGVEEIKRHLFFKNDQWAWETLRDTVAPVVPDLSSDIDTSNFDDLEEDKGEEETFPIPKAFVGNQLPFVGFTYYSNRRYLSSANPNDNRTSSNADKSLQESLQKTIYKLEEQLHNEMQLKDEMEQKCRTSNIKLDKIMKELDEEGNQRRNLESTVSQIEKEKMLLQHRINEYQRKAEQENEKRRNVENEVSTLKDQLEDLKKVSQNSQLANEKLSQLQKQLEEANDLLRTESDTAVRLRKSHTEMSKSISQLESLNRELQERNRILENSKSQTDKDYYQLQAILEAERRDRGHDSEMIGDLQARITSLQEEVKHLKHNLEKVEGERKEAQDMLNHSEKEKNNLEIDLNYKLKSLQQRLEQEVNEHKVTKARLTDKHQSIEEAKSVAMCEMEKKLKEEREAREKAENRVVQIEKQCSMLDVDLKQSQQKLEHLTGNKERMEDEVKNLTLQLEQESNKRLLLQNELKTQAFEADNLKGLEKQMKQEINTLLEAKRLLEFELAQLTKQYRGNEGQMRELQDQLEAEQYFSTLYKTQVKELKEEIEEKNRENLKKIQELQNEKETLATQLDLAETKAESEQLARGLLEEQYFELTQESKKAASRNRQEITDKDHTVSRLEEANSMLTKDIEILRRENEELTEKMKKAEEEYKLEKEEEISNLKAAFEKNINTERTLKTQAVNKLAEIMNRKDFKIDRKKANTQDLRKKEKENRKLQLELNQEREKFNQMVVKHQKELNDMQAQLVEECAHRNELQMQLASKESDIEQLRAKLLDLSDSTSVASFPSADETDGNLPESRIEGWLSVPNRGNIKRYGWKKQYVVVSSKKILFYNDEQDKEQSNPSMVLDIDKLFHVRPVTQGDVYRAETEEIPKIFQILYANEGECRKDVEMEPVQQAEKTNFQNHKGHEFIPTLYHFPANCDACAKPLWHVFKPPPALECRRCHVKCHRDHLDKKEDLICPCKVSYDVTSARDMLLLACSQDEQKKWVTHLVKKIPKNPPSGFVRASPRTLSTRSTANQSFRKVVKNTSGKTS
Sequence of GRK2 (P25098 whole entry, species assumed): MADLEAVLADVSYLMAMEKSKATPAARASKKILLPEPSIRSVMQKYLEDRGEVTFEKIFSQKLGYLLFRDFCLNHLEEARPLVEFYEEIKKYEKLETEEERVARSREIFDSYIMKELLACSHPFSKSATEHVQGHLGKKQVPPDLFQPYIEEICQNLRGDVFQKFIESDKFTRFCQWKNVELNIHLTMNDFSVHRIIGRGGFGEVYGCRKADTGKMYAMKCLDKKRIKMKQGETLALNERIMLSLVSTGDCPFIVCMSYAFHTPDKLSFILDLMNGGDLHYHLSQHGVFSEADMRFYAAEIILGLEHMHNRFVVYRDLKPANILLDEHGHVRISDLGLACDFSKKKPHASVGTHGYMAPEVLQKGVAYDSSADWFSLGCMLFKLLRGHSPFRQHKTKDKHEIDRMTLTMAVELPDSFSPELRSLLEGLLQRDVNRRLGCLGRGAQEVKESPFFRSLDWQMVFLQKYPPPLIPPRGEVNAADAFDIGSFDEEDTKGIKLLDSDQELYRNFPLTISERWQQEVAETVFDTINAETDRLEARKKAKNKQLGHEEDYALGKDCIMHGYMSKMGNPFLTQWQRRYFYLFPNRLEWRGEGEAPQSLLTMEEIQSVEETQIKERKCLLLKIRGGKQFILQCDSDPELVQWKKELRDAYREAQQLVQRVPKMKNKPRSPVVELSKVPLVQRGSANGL

Structure (SMILES)	IC50 (ROCK1)	IC50 (GRK2)
CC1=C(C(=O)Nc2ccc3[nH]ncc3c2)C(c2ccc(F)c(C(=O)NCc3ccccn3)c2)NC(=O)N1 (stereo not drawn) [Example E01, 4-(4-fluoro-3-((pyridin-2-ylmethyl)carbamoyl)phenyl)-N-(1H-indazol-5-yl)-6-methyl-2-oxo-1,2,3,4-tetrahydropyrimidine-5-carboxamide]	11 nM	–
CC1=C(C(=O)Nc2ccc3[nH]ncc3c2)C(c2ccc(F)c(C(=O)NCCc3ccccn3)c2)NC(=O)N1 (stereo not drawn) [Example E03, 4-(4-fluoro-3-((2-(pyridin-2-yl)ethyl)carbamoyl)phenyl)-N-(1H-indazol-5-yl)-6-methyl-2-oxo-1,2,3,4-tetrahydropyrimidine-5-carboxamide]	23 nM	–
CC1=C(C(=O)Nc2ccc3[nH]ncc3c2)C(c2ccc(F)c(C(=O)NCc3cccc(F)c3)c2)NC(=O)N1 (stereo not drawn) [Example E04, 4-(4-fluoro-3-((3-fluorobenzyl)carbamoyl)phenyl)-N-(1H-indazol-5-yl)-6-methyl-2-oxo-1,2,3,4-tetrahydropyrimidine-5-carboxamide]	21 nM	–
COc1ccc(CNC(=O)c2cc(C3NC(=O)NC(C)=C3C(=O)Nc3ccc4[nH]ncc4c3)ccc2F)cc1 (stereo not drawn) [Example E06, 4-(4-fluoro-3-((4-methoxybenzyl)carbamoyl)phenyl)-N-(1H-indazol-5-yl)-6-methyl-2-oxo-1,2,3,4-tetrahydropyrimidine-5-carboxamide]	50 nM	–
CC1=C(C(=O)Nc2ccc3[nH]ncc3c2)C(c2ccc(F)c(C(=O)NCCc3ccncc3)c2)NC(=O)N1 (stereo not drawn) [Example E07, 4-(4-fluoro-3-((2-(pyridin-4-yl)ethyl)carbamoyl)phenyl)-N-(1H-indazol-5-yl)-6-methyl-2-oxo-1,2,3,4-tetrahydropyrimidine-5-carboxamide]	> 100000 nM	–
CC1=C(C(=O)Nc2ccc3[nH]ncc3c2)C(c2ccc(F)c(C(=O)NCc3c(Cl)cccc3Cl)c2)NC(=O)N1 (stereo not drawn) [Example E09, 4-(3-((2,6-dichlorobenzyl)carbamoyl)-4-fluorophenyl)-N-(1H-indazol-5-yl)-6-methyl-2-oxo-1,2,3,4-tetrahydropyrimidine-5-carboxamide]	6700 nM	–
CC1=C(C(=O)Nc2ccc3[nH]ncc3c2)C(c2ccc(F)c(C(=O)NCc3c(C)cccc3C)c2)NC(=O)N1 (stereo not drawn) [Example E10, 4-(3-((2,6-dimethylbenzyl)carbamoyl)-4-fluorophenyl)-N-(1H-indazol-5-yl)-6-methyl-2-oxo-1,2,3,4-tetrahydropyrimidine-5 carboxamide]	5800 nM	–
COc1cccc(OC)c1CNC(=O)c1cc(C2NC(=O)NC(C)=C2C(=O)Nc2ccc3[nH]ncc3c2)ccc1F (stereo not drawn) [Example E11, 4-(3-((2,6-dimethoxybenzyl)carbamoyl)-4-fluorophenyl)-N-(1H-indazol-5-yl)-6-methyl-2-oxo-1,2,3,4-tetrahydropyrimidine-5-carboxamide]	> 10000 nM	–
CNC(=O)c1cc(C2NC(=O)NC(C)=C2C(=O)Nc2ccc3[nH]ncc3c2)ccc1F (stereo not drawn) [Example E12, 4-(4-fluoro-3-(methylcarbamoyl)phenyl)-N-(1H-indazol-5-yl)-6-methyl-2-oxo-1,2,3,4-tetrahydropyrimidine-5-carboxamide]	190 nM	–
CC1=C(C(=O)Nc2ccc3[nH]ncc3c2)C(c2ccc(F)c(C(=O)NCc3cc(C(F)(F)F)cc(C(F)(F)F)c3)c2)NC(=O)N1 (stereo not drawn) [Example E13, 4-(3-((3,5-bis(trifluoromethyl)benzyl)carbamoyl)-4-fluorophenyl)-N-(1H-indazol-5-yl)-6-methyl-2-oxo-1,2,3,4-tetrahydropyrimidine-5-carboxamide]	1900 nM	–
CC1=C(C(=O)Nc2ccc3[nH]ncc3c2)C(c2ccc(F)c(C(=O)NCCc3c(C)cccc3C)c2)NC(=O)N1 (stereo not drawn) [Example E14, 4-(3-((2,6-dimethylphenethyl)carbamoyl)-4-fluorophenyl)-N-(1H-indazol-5-yl)-6-methyl-2-oxo-1,2,3,4-tetrahydropyrimidine-5-carboxamide]	290 nM	–
CC1=C(C(=O)Nc2ccc3[nH]ncc3c2)C(c2ccc(F)c(C(=O)NCc3ncccc3C)c2)NC(=O)N1 (stereo not drawn) [Example E15, 4-(4-fluoro-3-(((3-methylpyridin-2-yl)methyl)carbamoyl)phenyl)-N-(1H-indazol-5-yl)-6-methyl-2-oxo-1,2,3,4-tetrahydropyrimidine-5-carboxamide]	150 nM	–
CC1=C(C(=O)Nc2ccc3[nH]ncc3c2)C(c2ccc(F)c(C(=O)NCc3ccccc3)c2)NC(=O)N1 (stereo not drawn) [Example E16, 4-(3-(benzylcarbamoyl)-4-fluorophenyl)-N-(1H-indazol-5-yl)-6-methyl-2-oxo-1,2,3,4-tetrahydropyrimidine-5-carboxamide]	69 nM	–
CC1=C(C(=O)Nc2ccc3[nH]ncc3c2)C(c2ccc(F)c(C(=O)NCc3c(C(F)(F)F)cccc3C(F)(F)F)c2)NC(=O)N1 (stereo not drawn) [Example E17, 4-(3-((2,6-bis(trifluoromethyl)benzyl)carbamoyl)-4-fluorophenyl)-N-(1H-indazol-5-yl)-6-methyl-2-oxo-1,2,3,4-tetrahydropyrimidine-5-carboxamide]	> 10000 nM	–
COc1cccc(CNC(=O)c2cc(C3NC(=O)NC(C)=C3C(=O)Nc3ccc4[nH]ncc4c3)ccc2F)c1 (stereo not drawn) [Example E18, 4-(4-fluoro-3-((3-methoxybenzyl)carbamoyl)phenyl)-N-(1H-indazol-5-yl)-6-methyl-2-oxo-1,2,3,4-tetrahydropyrimidine-5-carboxamide]	97 nM	–
CCC(C)N(C)C(=O)c1cc(C2NC(=O)NC(C)=C2C(=O)Nc2ccc3[nH]ncc3c2)ccc1F (stereo not drawn) [Example E19, 4-(3-(sec-butyl(methyl)carbamoyl)-4-fluorophenyl)-N-(1H-indazol-5-yl)-6-methyl-2-oxo-1,2,3,4-tetrahydropyrimidine-5-carboxamide]	–	51000 nM
CC1=C(C(=O)Nc2ccc3[nH]ncc3c2)C(c2ccc(F)c(C(=O)NCC(C)N3CCCCCC3)c2)NC(=O)N1 (stereo not drawn) [Example E20, 4-(3-((2-(azepan-1-yl)propyl)carbamoyl)-4-fluorophenyl)-N-(1H-indazol-5-yl)-6-methyl-2-oxo-1,2,3,4-tetrahydropyrimidine-5-carboxamide]	–	740 nM
CC1=C(C(=O)Nc2ccc3[nH]ncc3c2)C(c2ccc(F)c(C(=O)N(C)CC3CCCCO3)c2)NC(=O)N1 (stereo not drawn) [Example E21, 4-(4-fluoro-3-(methyl((tetrahydro-2H-pyran-2-yl)methyl)carbamoyl)phenyl)-N-(1H-indazol-5-yl)-6-methyl-2-oxo-1,2,3,4-tetrahydropyrimidine-5-carboxamide]	–	14600 nM
COC(=O)C1(NC(=O)c2cc(C3NC(=O)NC(C)=C3C(=O)Nc3ccc4[nH]ncc4c3)ccc2F)CCCCC1 (stereo not drawn) [Example E23, methyl 1-(5-(5-((1H-indazol-5-yl)carbamoyl)-6-methyl-2-oxo-1,2,3,4-tetrahydropyrimidin-4-yl)-2-fluorobenzamido)cyclohexanecarboxylate]	–	820 nM
COCc1noc(CNC(=O)c2cc(C3NC(=O)NC(C)=C3C(=O)Nc3ccc4[nH]ncc4c3)ccc2F)n1 (stereo not drawn) [Example E24, 4-(4-fluoro-3-(((3-(methoxymethyl)-1,2,4-oxadiazol-5-yl)methyl)carbamoyl)phenyl)-N-(1H-indazol-5-yl)-6-methyl-2-oxo-1,2,3,4-tetrahydropyrimidine-5-carboxamide]	–	240 nM
CC1=C(C(=O)Nc2ccc3[nH]ncc3c2)C(c2ccc(F)c(C(=O)NC3CC4CCC3(C)C4(C)C)c2)NC(=O)N1 (stereo not drawn) [Example E25, 4-(4-fluoro-3-((1,7,7-trimethylbicyclo[2.2.1]heptan-2-yl)carbamoyl)phenyl)-N-(1H-indazol-5-yl)-6-methyl-2-oxo-1,2,3,4-tetrahydropyrimidine-5-carboxamide]	–	5200 nM
CC1=C(C(=O)Nc2ccc3[nH]ncc3c2)C(c2ccc(F)c(C(=O)N(C)Cc3cc(C)[nH]n3)c2)NC(=O)N1 (stereo not drawn) [Example E26, 4-(4-fluoro-3-(methyl((5-methyl-1H-pyrazol-3-yl)methyl)carbamoyl)phenyl)-N-(1H-indazol-5-yl)-6-methyl-2-oxo-1,2,3,4-tetrahydropyrimidine-5-carboxamide]	–	1200 nM
COc1ccccc1C(C)NC(=O)c1cc(C2NC(=O)NC(C)=C2C(=O)Nc2ccc3[nH]ncc3c2)ccc1F (stereo not drawn) [Example E27, 4-(4-fluoro-3-((1-(2-methoxyphenyl)ethyl)carbamoyl)phenyl)-N-(1H-indazol-5-yl)-6-methyl-2-oxo-1,2,3,4-tetrahydropyrimidine-5-carboxamide]	–	320 nM
CC1=C(C(=O)Nc2ccc3[nH]ncc3c2)C(c2ccc(F)c(CC(=O)NCc3c(C)cccc3C)c2)NC(=O)N1 (stereo not drawn) [Example E28, 4-(3-(2-((2,6-dimethylbenzyl)amino)-2-oxoethyl)-4-fluorophenyl)-N-(1H-indazol-5-yl)-6-methyl-2-oxo-1,2,3,4-tetrahydropyrimidine-5-carboxamide]	450 nM	–
CC1=C(C(=O)Nc2ccc3[nH]ncc3c2)C(c2ccc(F)c(CC(=O)NCc3c(C(F)(F)F)cccc3C(F)(F)F)c2)NC(=O)N1 (stereo not drawn) [Example E29, 4-(3-(2-((2,6-bis(trifluoromethyl)benzyl)amino)-2-oxoethyl)-4-fluorophenyl)-N-(1H-indazol-5-yl)-6-methyl-2-oxo-1,2,3,4-tetrahydropyrimidine-5-carboxamide]	400 nM	–
COc1cccc(OC)c1CNC(=O)Cc1cc(C2NC(=O)NC(C)=C2C(=O)Nc2ccc3[nH]ncc3c2)ccc1F (stereo not drawn) [Example E30, 4-(3-(2-((2,6-dimethoxybenzyl)amino)-2-oxoethyl)-4-fluorophenyl)-N-(1H-indazol-5-yl)-6-methyl-2-oxo-1,2,3,4-tetrahydropyrimidine-5-carboxamide]	200 nM	–
CC1=C(C(=O)Nc2ccc3[nH]ncc3c2)C(c2ccc(F)cc2)NC(=O)N1 (stereo not drawn) [GSK180736A, reference compound]	78 nM	–
